Assay results as given in US4772616A, “Treatment of ocular hypertension and glaucoma with dopamine antagonists” (priority 1987, dated 1988).
Entries after “also recorded” stand apart in the source; their conditions may differ. Read-outs that look alike come from different tables or passages of the source.

Experiments:
[1] = tested on: intraocular pressure (IOP); assay: Intraocular pressure (IOP) recovery model in rabbits after hypertonic saline (20% NaCl) infusion; format: in vivo, Albino rabbits; conditions: for potency in lowering intraocular pressure compared with timolol: FIGS. 1-5; for potency in lowering intraocular pressure compared with pilocarpine and timolol: in vivo
Method: Albino rabbits of either sex, weighing 2.25-2.5 kg were used for this intraocular pressure (IOP) recovery model experiment. Hypertonic saline (20% NaCl) was infused into the ear vein at a rate of 1 ml/min. for 10 minutes. The IOP was determined with Mackay-Marg electronic applanation tonometer (Berkeley Bio-Engineering, San Leandro, Calif.) at 0, 5, 10, 15, 20, 40, 60, 80, and every 30 minutes thereafter. The IOP decreased abruptly right after the infusion of hypertonic saline and recovered to normal in approximately 80-110 minutes. Identical experiments were repeated with the same group of animals one week later, wherein addition to the hypertonic saline infusion, haloperidol was instilled into the eyes in the form of 50 μl of an aqueous solution of 0.125 wt % haloperidol.
The procedure performed in Example 1 was carried out in the same manner, except that an aqueous solution of 0.25 wt % haloperidol was employed.
The procedure performed in Example 1 was carried out in the same manner, except that an aqueous solution of 0.25 wt % moperone was used.
The procedure performed in Example 1 was carried out in the same manner, except that an aqueous solution of 0.25 wt % trifluperidol was used.
The procedure performed in Example 1 was carried out in the same manner, except that an aqueous solution of 0.25 wt % L-timolol was used.
The procedure performed in Example 1 was carried out in the same manner, except that an aqueous solution of 0.25 wt % clofluperol was used.
The procedure performed in Example 1 was carried out in the same manner, except that an aqueous solution of 0.25 wt % floropipamide was used.
The procedure performed in Example 1 was carried out in the same manner, except that an aqueous solution of 0.25 wt % lenperone was used.
The procedure performed in Example 1 was carried out in the same manner with the following exceptions: (a) an Alcon electronic applanation tonometer (Alcon Laboratories, Inc., Ft. Worth, Tex.) was used to determine IOP; and (b) an aqueous solution of 0.25 wt % trifluoperazine was used.
The procedure performed in Example 10 was carried out in the same manner, except that an aqueous solution of 0.25 wt % chlorpromazine was used.
The procedure performed in Example 10 was carried out in the same manner, except that an aqueous solution of 0.5 wt % domperidone was used.

[2] = tested on: aqueous humor formation and intraocular pressure; assay: Studies of ability to reduce aqueous humor formation and intraocular pressure in rabbits and cats; conditions: rabbit, in vivo
Text: The dopamine antagonists of the present invention have been studied with respect to their ability to reduce aqueous humor formation and intraocular pressure in rabbits and cats. The studies indicate that the compounds are effective in reducing aqueous humor formation and intraocular pressure subsequent to topical and intracameral application.

intraocular pressure = conditions: cited from earlier work
[3] = tested on: aqueous humor (AH) dynamics; assay: Cat eye model, aqueous humor (AH) dynamics (rates of AH formation and outflow, blue dextran); format: in vivo, cats; conditions: 50 μl of 0.5% eye drops
Method: The cat eye model was used for the study of haloperidol actions in aqueous humor (AH) dynamics. Briefly, cats of either sex weighing 2.5-4.0 kg were anesthetized with 30 mg/kg of pentobarbital sodium. Systemic blood pressure was monitored through cannulation at the femoral artery and additional pentobarbital was injected via femoral vein. Three needles were put into each eye. The first one was placed in the anterior chamber for the monitoring of IOP. The second one was placed at the posterior chamber for the infusion of AH-like solution containing 0.01% of blue dextran (NaCl, 137; KCl, 4.7; CaCl2, 1.53; MgCl2, 0.67; Na2 HPO4, 0.11 and dextrose, 5.56 mM). The rate of the infusion was adjusted to 38 μl/min. The third one was placed in the anterior chamber to serve as an overflow outlet. The overflown solution passed through a microspectrophotometric cell (ISCO, UA-5, Lincoln, Nebr.) for the detection of changes of blue dextran concentration and through a drop counter (ISCO, Model 328) for the recording of overflow rate.
Haloperidol (50 μl of 0.5% eye drops) was instilled to the eyes when the blue dextran tracings were stabilized (in about 2 hrs. after the initiation of the infusion). The rates of AH formation (rf) and outflow (ro) were calculated as follows: […]

[4] = Systemic absorption after topical instillation to the eye; format: in vivo; conditions: assuming not more than 10% of topically instilled drug absorbed systemically
[5] = background; cited from earlier work
[6] = background; cited from earlier work; remark: listed apart in the source
[7] = Oryctolagus cuniculus, topical, read-out: Difference in Max Reduction of IOP
[8] = rabbit, 0.25% drug, Alcon electronic applanation tonometer
[9] = rabbit, 0.25 wt % aqueous solution, Alcon tonometer
[10] = rabbit, 0.125% drug, Mackay-Marg tonometer, 50 μl eye instillation
[11] = rabbit, 0.25 wt % aqueous solution
[12] = Oryctolagus cuniculus, topical, rabbit, 0.25% drug, Mackay-Marg tonometer, 100% control IOP 20.2 ± 1.3 mm Hg, 20% saline alone 65 ± 1, read-out: Difference in Max Reduction of IOP
[13] = rabbit, 0.25% drug, Mackay-Marg tonometer, 50 μl eye instillation
[14] = rabbit, 0.25 wt % aqueous solution, Mackay-Marg tonometer

CN(C)CCCN1c2ccccc2Sc2ccc(Cl)cc21 [Chlorpromazine]
response vs control in vivo at 0.25 % [1, 7]: 52 ± 3% | Time Delay for IOP Recovery Relative to Control [1, 8]: 120 min | shift of the IOP recovery curve relative to the control curve [1, 9]: indicates the ocular hypotensive action

O=C(CCCN1CCC(O)(c2ccc(Cl)c(C(F)(F)F)c2)CC1)c1ccc(F)cc1 [Clofluperol]
potency in lowering intraocular pressure compared with timolol [1]: at least equipotent to timolol | response vs control in vivo at 0.125 % [1, 7]: 59 ± 2% | Time Delay for IOP Recovery Relative to Control [1, 10]: 60 min | IOP recovery compared with L-timolol [1, 11]: generally equivalent to that of L-timolol | reduction of aqueous humor formation and intraocular pressure [2]: reduce significantly

CC(C)(C)NC[C@@H](O)COc1nsnc1N1CCOCC1 [D-timolol]
intraocular pressure reducing response compared with S isomer (intraocular pressure; U.S. Pat. No. 4,521,414): substantially equivalent to that of the S isomer

O=c1[nH]c2ccccc2n1CCCN1CCC(n2c(=O)[nH]c3cc(Cl)ccc32)CC1 [Domperidone]
response vs control in vivo at 0.5 % [1, 7]: 56 ± 4% | Time Delay for IOP Recovery Relative to Control ([1]; rabbit, 0.5% drug, Alcon electronic applanation tonometer): 210 min | shift of the IOP recovery curve relative to the control curve ([1]; rabbit, 0.5 wt % aqueous solution, Alcon tonometer): indicates the ocular hypotensive action

NC(=O)C1(N2CCCCC2)CCN(CCCC(=O)c2ccc(F)cc2)CC1 [Floropipamide]
potency in lowering intraocular pressure compared with timolol [1]: at least equipotent to timolol | response vs control in vivo at 0.25 % [1, 12]: 60 ± 3% | Time Delay for IOP Recovery Relative to Control [1, 13]: 60 min | IOP recovery compared with L-timolol [1, 11]: generally equivalent to that of L-timolol | reduction of aqueous humor formation and intraocular pressure [2]: reduce significantly

O=C(CCCN1CCC(O)(c2ccc(Cl)cc2)CC1)c1ccc(F)cc1 [Haloperidol, 4-[4-(p-chlorophenyl)-4-hydroxypiperidino]-4'-fluorobutyrophenone]
potency in lowering intraocular pressure compared with timolol [1]: more potency than timolol | response vs control in vivo at 0.125 % [1, 7]: 45 ± 2% | response vs control in vivo at 0.25 % [1, 7]: 46 ± 2% | Time Delay for IOP Recovery Relative to Control [1, 10]: 180 min | shift of the IOP recovery curve relative to the control curve ([1]; rabbit, 0.125 wt % aqueous solution): indicates the ocular hypotensive action | Time Delay for IOP Recovery Relative to Control [1, 13]: 270 min | shift of the IOP recovery curve relative to the control curve [1, 14]: indicates the ocular hypotensive action | potency in lowering intraocular pressure compared with pilocarpine and timolol ([1]; rabbit): more potent than pilocarpine and timolol | AH formation ([3]; following the initial outflow increase): decrease in aqueous humor formation; also recorded: decrease in AH formation | AH outflow ([3]; initial effect): initial increase in aqueous humor outflow; also recorded: initially caused an increase in AH outflow | reduction of aqueous humor formation and intraocular pressure [2]: reduce significantly | anti-psychotic dosage level potentially absorbed as a result of glaucoma therapy [4]: 0.2% to 0.65

O=C(CCCN1CCC(C(=O)c2ccc(F)cc2)CC1)c1ccc(F)cc1 [Lenperone]
potency in lowering intraocular pressure compared with timolol [1]: at least equipotent to timolol | response vs control in vivo at 0.25 % [1, 12]: 61 ± 2% | Time Delay for IOP Recovery Relative to Control [1, 13]: 60 min | IOP recovery compared with L-timolol [1, 11]: generally equivalent to that of L-timolol | reduction of aqueous humor formation and intraocular pressure [2]: reduce significantly

Cc1ccc(C2(O)CCN(CCCC(=O)c3ccc(F)cc3)CC2)cc1 [Moperone]
potency in lowering intraocular pressure compared with timolol [1]: more potency than timolol | response vs control in vivo at 0.25 % [1, 12]: 55 ± 1% | Time Delay for IOP Recovery Relative to Control [1, 13]: 180 min | shift of the IOP recovery curve relative to the control curve [1, 14]: indicates the ocular hypotensive action | potency in lowering intraocular pressure compared with pilocarpine and timolol ([1]; rabbit): more potent than pilocarpine and timolol | reduction of aqueous humor formation and intraocular pressure [2]: reduce significantly

CC(C)(C)NC[C@H](O)COc1nsnc1N1CCOCC1 [Timolol, 1-tert-butyl-amino-3-[(4-morpholino-1,2,5-thiadiazol-3-yl)oxy]-2-propanol]
response vs control in vivo at 0.25 % [1, 12]: 62 ± 4% | Time Delay for IOP Recovery Relative to Control [1, 13]: 60 min | systemic absorption after topical administration to the eye [5]: a small portion is absorbed into the systemic circulation | local anesthetic action [6]: lack of local anesthetic action | tolerance [6]: minimal tolerance

CN1CCN(CCCN2c3ccccc3Sc3ccc(C(F)(F)F)cc32)CC1 [Trifluoperazine]
response vs control in vivo at 0.25 % ([1]; Oryctolagus cuniculus, topical, rabbit, 0.25% drug, Alcon tonometer, 100% control IOP 20.2 ± 1.3 mm Hg, 20% saline alone 65 ± 1, read-out: Difference in Max Reduction of IOP): 49 ± 4% | Time Delay for IOP Recovery Relative to Control [1, 8]: 150 min | shift of the IOP recovery curve relative to the control curve [1, 9]: indicates the ocular hypotensive action

CC[C@@H]1C(=O)OC[C@@H]1Cc1cncn1C [pilocarpine]
mechanism: effect on aqueous humor outflow and formation (intraocular pressure; comparison with haloperidol): increases aqueous humor outflow without affecting aqueous humor formation
